Measured values published in patent US10300048B2, “Thiazolidinones as cellular anandamide uptake inhibitors and their use in the treatment of psychiatric or neurological disorders and inflammation, in particular neuroinflammation” (UNIVERSITAT BERN, priority 2014, dated 2019).
pIC50: −log10 of the molar value. Like-named read-outs stand apart in the source and are kept apart here.

How the values were obtained:
[1] = tested on: AEA cellular uptake, U937 cells; experiment: [3H]-AEA cellular uptake inhibition in U937 cells; type: cell-based; details: for pIC50: U937 cells
Experimental: [^3H]-AEA Cellular Uptake
Screening for AEA cellular uptake inhibition was performed in a semi-automated procedure: Pipetting and washing steps were performed by a Biomek3000 laboratory workstation. First, required amounts of U937 cells were centrifuged at 100×g for 5 min and resuspended in RPMI (37° C.) to a final concentration of 2×10^6 cells/mL. Then, 250 μL of cell suspension (0.5×10^6 cells per sample) were transferred into AquaSil™ silanized glass vials (Chromacol 1.1-MTV) in 96-well format. After addition of 5 μL vehicle (DMSO) or compounds the cells were incubated at 37° C. for 15 min. As positive controls OMDM-2 and UCM707 were used at 10 μM in each run. The ETI-T compounds were measured at up to 7 concentrations in triplicates from 100 pM-100 μM. After pre-incubation, a mixture of 0.5 nM[ethanolamine-1-^3H]-AEA, (60 Ci/mmol) and 99.5 nM of cold AEA (final 100 nM) was added and samples were incubated at 37° C. for another 15 min. The reaction was stopped by rapid filtration over UniFilter-96 GF/C filters (PerkinElmer) pre-soaked with PBS 0.25% BSA. Cells were washed three times with 100 μL ice-cold PBS buffer containing 1% fatty acid free BSA. After drying, 45 μL MicroScint 20 scintillation cocktail (PerkinElmer, Waltham, Mass., US) was added to the wells and the plate was sealed. Radioactivity was measured by liquid scintillation counting on a PerkinElmer Wallac Trilux MicroBeta 1450 during 2 min. Non-specific binding of [^3H]AEA (100 nM) to the glass vials was never higher than 10%. IC50 values were calculated by GraphPad® by non-linear regression using the built-in log(inhibitor) vs. response-variable slope (four parameters) function.
(§1) Statistical analysis and IC50 values were determined using GraphPad® Prism 5.0 (GraphPad® Software, San Diego, Calif., US). Inhibition curves were obtained by non-linear regression using the built-in log(inhibitor) vs. response-variable slope (four parameters) function. Results were calculated as % of vehicle control of the corresponding fraction (cells, aqueous phase) if not mentioned else. In vivo results are shown in absolute values and were analyzed by a one-way ANOVA following a Tukey's multiple comparison test or student's t-test. If not indicated else the results were compared vs. vehicle (CTRL). *** P<0.001, ** P<0.01, * P<0.05, ns=not significant P>0.05.

FAAH = FAAH (Homo sapiens (Human), UniProt O00519); experiment: FAAH activity: hydrolysis of [3H]-AEA in U937 cell homogenates; type: biochemical; details: for pIC50: U937 cell homogenate, read-out: FAAH inhibition IC50
Experimental: Hydrolysis of [^3H]-AEA by FAAH was determined as previously described in cell homogenates of U937 cells (0.18 mg protein) (Omeir et al., 1999, Biochem Biophys Res Commun, 264, 316-20; Mor et al., 2004, J Med Chem, 47, 4998-5008). Protein amounts of cell homogenates corresponded to 0.5×10^6 cells (U937), to assure best possible comparability of IC50 values as used for the AEA cellular uptake assays. URB597 was used as positive control. Protein quantification was performed using a BCA assay (Thermo Scientific). Enzyme activity was assessed by addition of vehicle or compounds in 10 μL DMSO to 490 μL homogenate in 10 mM Tris HCl, 1 mM EDTA, 0.1% (w/v) BSA fatty acid free, pH=8 and incubation for 15 min at 37° C. After, a mixture of AEA plus [ethanolamine-1-^3H]-AEA (0.5 nM) at final 100 nM was added to the homogenates and incubated for 15 min at 37° C. The reaction was stopped by addition of 1 mL ice-cold CHCl3:MeOH (1:1) followed by vigorous vortexing. Phase separation was achieved by centrifugation at 10′000×g at 4° C. for 10 min. Radioactivity of the separated aqueous phase (upper phase) containing [^3H-ethanolamine] or [^3H-glycerol] was measured by liquid scintillation counting on a Tri-Carb 2100 TR liquid scintillation analyzer after addition of 3.5 mL Ultima Gold scintillation cocktail (PerkinElmer Life Sciences). Results are expressed as hydrolysis of tritium substrate in percent of vehicle treated control. IC50 values were calculated by GraphPad®. Data are reported as means of n=3 independent experiments performed in triplicates.
as §1

hCB1 receptor = hCB1 receptor (Homo sapiens (Human), UniProt P21554); experiment: Radioligand CB receptor binding, [3H]-CP55,940 displacement on CHO-K1 hCB1 membranes; details: for CB1 receptor binding (%) at 10 µM: Table 4; for CB1 receptor binding % binding at 10 μM: Table 3
Experimental: Stably transfected CHO-K1 cells expressing hCB1 or hCB2 receptors (Gertsch et al., 2008, Proc Natl Acad Sci 105, 9099-104) were cultured in T150 cm^2 flasks up to 90% confluence. The medium was removed and cells were washed twice with PBS, 37° C. 10 mL of PBS was added and the cells were scraped and transferred into a falcon tube following homogenization by a Polytron PT1300D for 5 min at 30 krpm. Then, the homogenate was centrifuged (1400×g, 5 min) to remove debris. The supernatant was subjected to ultracentrifugation (64000×g, 45 min, 4° C.) to separate cytosolic from the membrane fraction. The supernatant was discharged and the pellet resuspended in PBS by sonication. Protein quantity was determined by BCA assay (Thermo Scientific) and aliquots of 500 μL were stored at −80° C. until use.
Radioligand CB Receptor Binding
Binding properties of ETI-T compounds to hCB1 or hCB2 receptors were performed as previously reported in a [^3H]-CP55,940 displacement assay (Gertsch et al., 2008, Proc Natl Acad Sci 105, 9099-104). WIN 55,212-2 was used as positive control. In brief, 20 μg protein of CHO-K1 hCB1 or hCB2 membrane preparations were thawed on ice and resuspended in a final volume of 500 μL binding buffer (50 mM Tris-HCl, 2.5 mM EDTA, 5 mM MgCl2, 0.5% fatty acid free BSA, pH 7.4) in silanized glass vials. [^3H]-CP55,940 (168 Ci/mmol) (PerkinElmer, Waltham, Mass., US) was added to a final concentration of 0.5 nM followed by the addition of competitors or vehicle in 5 μL DMSO. Membrane binding was equilibrated for 2 h at room temperature (25° C.). Samples were filter through a 0.1% polyethylenimine pre-soaked UniFilter®-96 GF/B plate (PerkinElmer) and washed twelve times with 167 μL ice-cold assay-buffer. The plate was dried, bottom sealed and 45 μL MicroScint 20 scintillation cocktail (PerkinElmer) were added before measured on a PerkinElmer 1450 Microbeta TRILUX liquid scintillation counter. Unspecific binding was determined by WIN 55,212-2, 10 μM and subtracted from all values. […].

[2] = Homo sapiens, U-937, Table 4, read-out: AEA uptake IC50
[3] = Homo sapiens, U-937, Table 1, 100 nM AEA, read-out: AEA uptake inhibition IC50

Sequence of hCB1 receptor (P21554 whole entry): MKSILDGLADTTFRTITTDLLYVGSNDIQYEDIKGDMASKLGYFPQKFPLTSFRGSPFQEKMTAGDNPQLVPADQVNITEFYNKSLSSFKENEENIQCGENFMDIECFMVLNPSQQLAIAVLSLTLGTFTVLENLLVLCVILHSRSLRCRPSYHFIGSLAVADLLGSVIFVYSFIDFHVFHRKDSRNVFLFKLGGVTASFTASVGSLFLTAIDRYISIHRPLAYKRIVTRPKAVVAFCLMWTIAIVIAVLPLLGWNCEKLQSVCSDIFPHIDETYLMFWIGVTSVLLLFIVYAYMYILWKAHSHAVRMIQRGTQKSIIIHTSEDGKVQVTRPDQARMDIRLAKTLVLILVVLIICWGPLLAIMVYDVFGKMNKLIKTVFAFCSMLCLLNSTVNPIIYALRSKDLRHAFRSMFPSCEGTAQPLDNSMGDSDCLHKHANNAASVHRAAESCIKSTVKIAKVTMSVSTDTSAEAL
Sequence of FAAH (O00519 whole entry): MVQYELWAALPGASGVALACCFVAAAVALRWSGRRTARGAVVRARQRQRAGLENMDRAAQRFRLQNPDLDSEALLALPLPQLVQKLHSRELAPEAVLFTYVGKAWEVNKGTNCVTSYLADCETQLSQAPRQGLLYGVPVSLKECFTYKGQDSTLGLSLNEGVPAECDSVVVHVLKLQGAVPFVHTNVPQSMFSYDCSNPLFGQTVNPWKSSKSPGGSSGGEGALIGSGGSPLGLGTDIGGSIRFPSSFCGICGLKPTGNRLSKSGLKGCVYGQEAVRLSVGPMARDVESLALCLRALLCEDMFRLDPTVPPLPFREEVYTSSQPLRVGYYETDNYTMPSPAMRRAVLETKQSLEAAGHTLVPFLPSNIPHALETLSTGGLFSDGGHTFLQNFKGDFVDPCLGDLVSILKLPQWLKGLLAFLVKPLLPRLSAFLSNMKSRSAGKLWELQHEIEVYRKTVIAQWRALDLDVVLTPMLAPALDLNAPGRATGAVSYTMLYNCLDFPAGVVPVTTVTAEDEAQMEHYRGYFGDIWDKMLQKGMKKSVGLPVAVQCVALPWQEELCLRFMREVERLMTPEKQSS

pIC50 [1, 2] | CB1 receptor binding (%) at 10 µM (hCB1 receptor) [%] | pIC50 [1, 3] | Structure (SMILES) | also measured
5.97 | 40 |  | CN(C)c1ccc(/C=C2\S/C(=N\c3ccccc3)N(C3CCCCC3)C2=O)cc1 [ETI-T-385] | pIC50 (FAAH; Table 4): 6.01
6.22 |  | 6.22 | COc1ccc(/N=C2\S/C(=C\c3ccc(O)cc3)C(=O)N2c2ccc(OC)cc2)cc1 [Compound 18] | 
5.84 | 60 |  | CCCN1C(=O)/C(=C/c2ccc3c(c2)OCO3)S/C1=N\c1ccc(OC)cc1 [ETI-T-426] | 
5.85 |  |  | CCOc1cc(/C=C2/S/C(=N\c3ccc(C)c(Cl)c3)N(c3ccc(C)c(Cl)c3)C2=O)ccc1O [ETI-T-435] | 
6.32 | 35 | 6.32 | CCOc1cc(/C=C2\S/C(=N\c3ccc(C)cc3)N(c3ccc(C)cc3)C2=O)ccc1O [Compound 12] | pIC50 (FAAH; Table 2): < 4.00; CB1 receptor binding % binding at 10 μM (hCB1 receptor): 35%
5.80 |  |  | COc1ccc(C=C2SC(=Nc3ccc(F)cc3)N(c3ccc(F)cc3)C2=O)cc1OC [ETI-T-343] | 
6.57 |  | 6.57 | CCN1C(=O)/C(=C/c2ccc(O)cc2)S/C1=N\c1ccc(F)cc1 [Compound 8] | 
6.18 |  | 6.18 | C=CCc1cc(/C=C2\S/C(=N\c3ccccc3)N(Cc3ccco3)C2=O)cc(OC)c1O [Compound 20] | 
6.23 |  | 6.23 | CCN1C(=O)/C(=C/c2cc(I)c(O)c(OC)c2)S/C1=N\c1ccccc1 [Compound 17] | 
6.29 |  | 6.29 | Cc1ccsc1/C=C1\S/C(=N\c2ccccc2)N(C(C)C)C1=O [Compound 13] | 
6.36 |  | 6.36 | O=C1/C(=C/c2ccc(O)cc2)S/C(=N\c2ccccc2)N1Cc1ccco1 [Compound 11] | 
6.24 | 15 | 6.24 | C=CCc1cc(/C=C2\S/C(=N\c3ccc(C(=O)OC)cc3)N(C)C2=O)cc(OCC)c1O [Compound 16] | pIC50 (FAAH; Table 2): < 4.00; CB1 receptor binding % binding at 10 μM (hCB1 receptor): 15%
5.88 | 41 |  | C=CCc1cc(/C=C2/S/C(=N/c3ccc(C)cc3)N(C)C2=O)cc(OCC)c1O [ETI-T-399] | 
6.05 | 34 | 6.05 | C/C=C/c1cc(/C=C2\S/C(=N\c3ccccc3)N(CCOC)C2=O)cc(OCC)c1O [Compound 22] | pIC50 (FAAH; Table 4): < 4.00
5.90 |  |  | COc1cc(/C=C2\S/C(=N\c3ccc(C)cc3)N(c3ccc(C)cc3)C2=O)ccc1O [ETI-T-008 Jspg] | pIC50 (FAAH; Table 4): 5.27
5.98 |  |  | CCOc1cc(/C=C2/S/C(=N/c3ccc(OC)cc3)N(c3ccc(OC)cc3)C2=O)ccc1O [ETI-T-445] | 

pIC50 [1, 2] | CB1 receptor binding (%) at 10 µM (hCB1 receptor) [%] | pIC50 [1, 3] | Structure (SMILES) | also measured
 |  |  | CCOc1cc(/C=C2\S/C(=N\c3cc(Cl)ccc3C)NC2=O)ccc1O [Compound 3] | pIC50 ([1]; Table 1, 100 nM AEA, read-out: AEA uptake inhibition IC50): 6.86
7.13 | 33 | 7.13 | CCOc1cc(/C=C2\S/C(=N\c3ccc(F)cc3)N(c3ccc(F)cc3)C2=O)ccc1O [Compound 2] | apparent selectivity for AEA uptake inhibition over FAAH inhibition ([1]; ratio of FAAH IC50 to AEA uptake IC50): ~760 fold; FAAH inhibition (in words) (FAAH): Lack of FAAH inhibition; pIC50 (FAAH; Table 2): 4.25; pIC50 (FAAH; Table 4): 4.25; CB1 receptor binding % binding at 10 μM (hCB1 receptor): 33%
5.87 |  |  | CCOc1cc(/C=C2/S/C(=N/c3ccc(F)cc3)N(c3ccc(F)cc3)C2=O)ccc1O [ETI-T-438] | 
5.89 |  |  | CCOc1cc(/C=C2\S/C(=N\c3ccccc3)N(CCOC)C2=O)ccc1O [ETI-T-410] | 
6.48 |  | 6.48 | CCN1C(=O)/C(=C/c2ccc(C)cc2)S/C1=N\c1ccc(OC)cc1 [Compound 9] | 
6.27 |  | 6.27 | COc1ccc(/C=C2\S/C(=N\c3ccccc3)N(c3ccccc3)C2=O)cc1 [Compound 14] | 
6.26 |  | 6.26 | CCCOc1cc(/C=C2\S/C(=N\c3ccccc3C)N(c3ccccc3C)C2=O)ccc1O [Compound 15] | 
7.17 | 33 | 7.17 | Cc1ccc(/N=C2\S/C(=C\c3ccc(O)cc3)C(=O)N2c2ccc(C)cc2)cc1 [Compound 1] | 
5.94 |  |  | Cc1ccc(/N=C2\S/C(=C\c3ccc(O)c(Cl)c3)C(=O)N2c2ccc(C)cc2)cc1 [ETI-T-444] | 
6.22 |  | 6.22 | COc1ccc(/C=C2\S/C(=N\c3ccc(C)cc3)N(c3ccc(C)cc3)C2=O)cc1 [Compound 19] | 
6.58 |  | 6.58 | C#CCOc1ccc(/C=C2\S/C(=N\c3ccc(OC)cc3)N(CCc3c[nH]c4ccccc34)C2=O)cc1 [Compound 7] | 
6.45 | 29 | 6.45 | CCCN1C(=O)/C(=C/c2ccc(N(C)C)cc2)S/C1=N\c1ccccc1 [Compound 10] | pIC50 (FAAH; Table 4): 5.98
5.80 | 42 |  | CCCCN1C(=O)/C(=C/c2cc(Br)c(O)c(OCC)c2)S/C1=N\c1ccccc1 [ETI-T-401] | 
6.10 | 45 | 6.10 | Cc1ccc(/N=C2\S/C(=C\c3ccc(O)c(Cl)c3)C(=O)N2c2ccc(C)c(Cl)c2)cc1Cl [Compound 21] | pIC50 (FAAH; Table 4): 4.23
6.84 |  | 6.84 | C=CCCc1cc(/C=C2\SC(=NCC)N(CC)C2=O)cc(OCC)c1O [Compound 4] | 
